# Experiments:
# human CCR2 = target: T1, human CCR2 (Homo sapiens, UniProt P41597); experiment: Functional Ca2+ release test (B-1); type: cell-based; settings: Chem-1 cell line transfected with human CCR2; 50% inhibition of the MCP-1 effect, MCP-1 at EC50 (about 5 nM); in some cases means of several determinations
# T1 construct: host or cells: Chem-1 cell line
# T1 sequence (P41597 1-360 isoform P41597-2): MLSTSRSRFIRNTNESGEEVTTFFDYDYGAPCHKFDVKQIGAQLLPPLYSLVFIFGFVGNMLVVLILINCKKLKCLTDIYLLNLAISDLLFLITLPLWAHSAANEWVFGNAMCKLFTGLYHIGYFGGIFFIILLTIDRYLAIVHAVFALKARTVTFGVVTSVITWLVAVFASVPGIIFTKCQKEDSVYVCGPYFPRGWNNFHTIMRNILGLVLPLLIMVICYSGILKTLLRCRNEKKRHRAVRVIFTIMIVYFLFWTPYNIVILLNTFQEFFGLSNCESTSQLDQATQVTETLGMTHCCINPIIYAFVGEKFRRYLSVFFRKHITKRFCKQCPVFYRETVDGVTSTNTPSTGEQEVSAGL
# Method in brief: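 Inhibition of MCP-1-evoked Ca2+ release was measured over 120 s by fluorescence imaging in Fluo-4-loaded, human CCR2-transfected Chem-1 cells. Compounds, tested in 10-point 1:3.16 series, were added 10 min before agonist at its EC50 (typically about 5 nM). IC50 values were obtained by 4-parameter logistic fitting.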
# murine CCR2 = target: T2, murine CCR2 (Mus musculus, UniProt P51683); experiment: Functional β-arrestin recruiting test with human MCP-1 (B-2a); type: cell-based; settings: U2OS β-arrestin cell line transfected with murine CCR2; agonist human MCP-1 at EC50 (about 3 nM); in some cases means of several determinations
# T2 construct: host or cells: U2OS β-arrestin cell line
# T2 sequence (P51683 whole entry): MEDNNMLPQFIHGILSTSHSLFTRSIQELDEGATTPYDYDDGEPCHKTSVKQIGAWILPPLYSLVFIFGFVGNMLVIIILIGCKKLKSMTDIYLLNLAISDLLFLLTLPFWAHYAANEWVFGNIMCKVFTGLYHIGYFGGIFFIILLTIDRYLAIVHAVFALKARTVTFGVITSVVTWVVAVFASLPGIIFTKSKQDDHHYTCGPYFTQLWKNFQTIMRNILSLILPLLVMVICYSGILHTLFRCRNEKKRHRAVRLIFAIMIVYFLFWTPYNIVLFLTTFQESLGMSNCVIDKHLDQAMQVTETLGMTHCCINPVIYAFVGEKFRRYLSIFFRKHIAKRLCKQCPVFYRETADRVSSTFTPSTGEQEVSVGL
# Protocol: The antagonistic action of test substances on CCR2 was determined in a β-arrestin test. The PathHunter β-arrestin GPCR test system (DiscoveRx Corporation, Ltd.) is a cell-based functional method for detecting binding of β-arrestin to an activated receptor. The molecular basis is a […] complementation measured by the enzymatic conversion of a chemiluminescent substrate. The test cell used was a U2OS β-arrestin cell line transfected with murine CCR2 (93-0543C3, DiscoveRx Corporation, Ltd.).
# The test substances were dissolved in dimethyl sulphoxide (DMSO) at a concentration of 10 mM and serially diluted with DMSO in steps of 1:3.16 for a 10-point dose/activity analysis. According to the desired test concentrations, the substances were pre-diluted in Tyrode with 2 mM CaCl2 and 0.05% BSA.
# The cells, cultivated in MEM Eagle (supplemented with 10% FCS, 50 U/ml of penicillin, 50 μg/ml of streptomycin, 250 μg/ml of hygromycin and 500 μg/ml of geniticin), were sown at 2000 cells/25 μl in 384 well, μCLEAR/black cell culture plates from Greiner (#781092) and incubated at 37° C. for 24 h. The sowing medium consisted of Opti-MEM (supplemented with 1% FCS, 50 U/ml of penicillin and 50 μg/ml of streptomycin). The cells were pre-incubated for 10 min with 10 μl of the test substances diluted in buffer, and 10 μl of agonist solution [human MCP-1 (PeproTech, #300-04) in Tyrode with 0.05% BSA) were then added. The human MCP-1 was employed at the concentration which corresponds to the EC50 which had been determined in a preliminary test (usually about 3 nM). After 90 min of incubation at 37° C., the solution was removed, and recruitment of β-arrestin to CCR2 was detected with the aid of the PathHunter detection reagent (93-001, DiscoveRx Corporation, Ltd.) according to the instructions of the manufacturer. Luminescence was measured after an incubation time of 60 min using a proprietary luminescence imaging measuring instrument. The molar concentration of the test substance which caused 50% inhibition of the MCP-1 effect (IC50) was determined using a 4-parameter logistic function (Hill function).
Compound,IC50 (human CCR2) [nM],IC50 (murine CCR2) [nM]
"CC1(C)NC(c2nc(C(F)(F)F)c(Oc3ccc(Cl)c(C(F)(F)F)c3)c(=O)[nH]2)=NO1 [Example 87, 5-[4-Chloro-3-(trifluoromethyl)phenoxy]-2-(5,5-dimethyl-4,5-dihydro-1,2,4-oxadiazol-3-yl)-6-(trifluoromethyl)pyrimidin-4(3H)-one]",14,54
"5-(3,4-dichlorobenzyl-2-(2-methoxypyridin-3-yl)-6-(trifluoromethyl)pyrimidin-4(3H)-one [Example 41]",4.8,410
"O=c1[nH]c(-c2noc(C(F)(F)F)n2)nc(C(F)(F)F)c1Oc1ccc(Cl)c(Cl)c1 [Example 84, 5-(3,4-Dichlorophenoxy)-6-(trifluoromethyl)-2-[5-(trifluoromethyl)-1,2,4-oxadiazol-3-yl]pyrimidin-4(3H)-one]",9.2,86
"O=c1[nH]c(-c2cccc(Cl)n2)nc(C(F)(F)F)c1Oc1ccc(Cl)c(Cl)c1 [Example 10, 2-(6-chloropyridin-2-yl)-5-(3,4-dichlorophenoxy)-6-(trifluoromethyl)pyrimidin-4(3H)-one]",15,140
"O=c1[nH]c(-c2cc(O)ccn2)nc(C(F)(F)F)c1Oc1ccc(Cl)c(Cl)c1 [Example 32, 5-(3,4-dichlorophenoxy)-2-(4-hydroxypyridin-2-yl)-6-(trifluoromethyl)pyrimidin-4(3H)-one]",51,1100
"O=c1[nH]c(-c2ncccc2F)nc(C(F)(F)F)c1Cc1ccc(Cl)c(C(F)(F)F)c1 [Example 34, 5-[4-chloro-3-(trifluoromethyl)benzyl]-2-(3-fluoropyridin-2-yl)-6-(trifluoromethyl)pyrimidin4(3H)-one]",2.7,110
"O=c1[nH]c(-c2ncccc2Cl)nc(C(F)(F)F)c1Oc1cccc(Cl)c1 [Example 12, 5-(3-chlorophenoxy)-2-(3-chloropyridin-2-yl)-6-(trifluoromethyl)pyrimidin-4(3H)-one]",75,100
"Nc1[nH]ncc1-c1nc(C(F)(F)F)c(Cc2ccc(Cl)c(Cl)c2)c(=O)[nH]1 [Example 60, 2-(5-amino-1H-pyrazol-4-yl)-5-(3,4-dichlorobenzyl)-6-(trifluoromethyl)pyrimidin-4(3H)-one]",91,180
"COc1cc(-c2nc(C(F)(F)F)c(Cc3ccc(Cl)c(Cl)c3)c(=O)[nH]2)ccn1 [Example 29, 5-(3,4-dichlorobenzyl)-2-(2-methoxypyridin-4-yl)-6-(trifluoromethyl)pyrimidin-4(3H)-one]",92,2600
"O=c1[nH]c(-c2ccc(Cl)cn2)nc(C(F)(F)F)c1Oc1ccc(Cl)c(Cl)c1 [Example 8, 2-(5-chloropyridin-2-yl)-5-(3,4-dichlorophenoxy)-6-(trifluoromethyl)pyrimidin-4(3H)-one]",3.9,180
"Nc1ncnn1-c1nc(C(F)(F)F)c(Oc2ccc(Cl)c(Cl)c2)c(=O)[nH]1 [Example 48, 2-(5-Amino-1H-1,2,4-triazol-1-yl)-5-(3,4-dichlorophenoxy)-6-(trifluoromethyl)pyrimidin-4(3H)-one]",4.2,30000
"O=c1[nH]c(-c2ncccc2Cl)nc(C(F)(F)F)c1Oc1ccc(F)c(F)c1 [Example 13, 2-(3-chloropyridin-2-yl)-5-(3,4-difluorophenoxy)-6-(trifluoromethyl)pyrimidin-4(3H)-one]",56,120
"Cn1ncc(-c2nc(C(F)(F)F)c(Oc3ccc(Cl)c(Cl)c3)c(=O)[nH]2)c1N [Example 68, 2-(5-amino-1-methyl-1H-pyrazol-4-yl)-5-(3,4-dichlorophenoxy)-6-(trifluoromethyl)pyrimidin-4(3H)-on]",27,310
"Nc1oc(=O)sc1-c1nc(C(F)(F)F)c(Cc2ccc(Cl)c(Cl)c2)c(=O)[nH]1 [Example 46, 2-(5-Amino-2-oxo-1,3-oxathiol-4-yl)-5-(3,4-dichlorobenzyl)-6-(trifluoromethyl)pyrimidin-4(3H)-one]",59,230
"Cc1cccc(-c2nc(C(F)(F)F)c(Cc3ccc(Cl)c(Cl)c3)c(=O)[nH]2)n1 [Example 25, 5-(3,4-dichlorobenzyl)-2-(6-methylpyridin-2-yl)-6-(trifluoromethyl)pyrimidin-4(3H)-one]",33,790
"O=c1[nH]c(-c2cccc(Cl)n2)nc(C(F)(F)F)c1Oc1ccc(Cl)c(C(F)(F)F)c1 [Example 36, 2-(6-chloropyridin-2-yl)-5-[4-chloro-3-(trifluoromethyl)phenoxy]-6-(trifluoromethyl)pyrimidin-4(3H)-one]",6.2,140

# Further lines, results first:
IC50 (human CCR2) [nM],IC50 (murine CCR2) [nM],Compound
18,6100,"O=C(O)c1cc(O)n(-c2nc(C(F)(F)F)c(Cc3ccc(Cl)c(Cl)c3)c(=O)[nH]2)n1 [Example 88, 1-[5-(3,4-Dichlorobenzyl)-6-oxo-4-(trifluoromethyl)-1,6-dihydropyrimidin-2-yl]-5-hydroxy-H-pyrazole-3-carboxylic acid]"
150,1100,"Cc1nc(Cc2nc(C(F)(F)F)c(Cc3ccc(Cl)c(Cl)c3)c(=O)[nH]2)cs1 [Example 174, 5-(3,4-dichlorobenzyl)-2-[(2-methyl-1,3-thiazol-4-yl)methyl]-6-(trifluoromethyl)pyrimidin-4(3H)-one]"
13,120,"CCOC(=O)c1nc(-c2nc(C(F)(F)F)c(Oc3ccc(Cl)c(Cl)c3)c(=O)[nH]2)no1 [Example 260, Ethyl 3-[5-(3,4-dichlorophenoxy)-6-oxo-4-(trifluoromethyl)-1,6-dihydropyrimidin-2-yl]-1,2,4-oxadiazole-5-carboxylate x N,N-diisopropylethylamine]"
62,140,O=c1[nH]c(Cc2cccs2)nc(C(F)(F)F)c1Cc1ccc(Cl)c(Cl)c1 [Example 172]
120,460,"O=c1[nH]c(Cc2cccnc2)nc(C(F)(F)F)c1Cc1ccc(Cl)c(Cl)c1 [Example 98, 5-(3,4-dichlorobenzyl)-2-(pyridin-3-ylmethyl)-6-(trifluoromethyl)pyrimidin-4(3H)-one]"
180,1400,"Cn1cnc(Nc2nc(C(F)(F)F)c(Oc3ccc(Cl)c(Cl)c3)c(=O)[nH]2)n1 [Example 106, 5-(3,4-dichlorophenoxy)-2-[(1-methyl-1H-1,2,4-triazol-3-yl)amino]-6-(trifluoromethyl)pyrimidin-4(3H)-one]"
57,220,"O=c1[nH]c(Cc2ncn[nH]2)nc(C(F)(F)F)c1Cc1ccc(Cl)c(Cl)c1 [Example 92, 5-(3,4-dichlorobenzyl)-2-(1H-1,2,4-triazol-5-ylmethyl)-6-(trifluoromethyl)pyrimidin-4(3H)-one]"
9.4,160,"O=c1[nH]c(Nc2cn[nH]c2)nc(C(F)(F)F)c1Oc1ccc(Cl)c(C(F)(F)F)c1 [Example 104, 5-[4-Chloro-3-(trifluoromethyl)phenoxy]-2-(1H-pyrazol-4-ylamino)-6-(trifluoromethyl)pyrimidin-4(3H)-one]"
430,11000,"COc1cccc(Nc2nc(C(F)(F)F)c(Oc3ccc(Cl)c(Cl)c3)c(=O)[nH]2)n1 [Example 101, 5-(3,4-dichlorophenoxy)-2-[(6-methoxypyridin-2-yl)amino]-6-(trifluoromethyl)pyrimidin-4(3H)-one]"
11,370,"O=c1[nH]nc(Cc2nc(C(F)(F)F)c(Cc3ccc(Cl)c(Cl)c3)c(=O)[nH]2)o1 [Example 89, 5-(3,4-Dichlorobenzyl)-2-[(5-oxo-4,5-dihydro-1,3,4-oxadiazol-2-yl)methyl]-6-(trifluoromethyl)pyrimidin-4(3H)-one]"

# From patent US20160237059A1, “HETEROCYCLIC SUBSTITUTED TRIFLUOROMETHYL PYRIMIDINONES AND THEIR USE” (BAYER PHARMA AKTIENGESELLSCHAFT, priority 2013, published 2016)
